Source: patent US20070179060A1, “6-(Poly-substituted aryl)-4-aminopicolinates and their use as herbicides” (priority 2006, published 2007)

How the values were obtained:
[1] = test system: barley (Hordeum vulare); assay: Postemergence herbicidal activity in cereal crops; assay type: in vivo; settings: crop, post-emergent, after 20-22 days; for pest or weed control at 17.5 g/ha: 17.5 g ai/ha
Experimental: (§1) When required to ensure good germination and healthy plants, a fungicide treatment and/or other chemical or physical treatment was applied. The plants were grown for 7-36 days in a greenhouse with an approximate 14 hour photoperiod which was maintained at about 18° C. during the day and 17° C. during the night. Nutrients and water were added on a regular basis and supplemental lighting was provided with overhead metal halide 1000-Watt lamps as necessary. The plants were employed for testing when they reached the second or third true leaf stage. […] The concentrated stock solutions obtained were diluted with 16 mL of an aqueous mixture containing acetone, water, isopropyl alcohol, DMSO, Agri-dex crop oil concentrate, and Triton® X-77 surfactant in a 64.7:26.0:6.7:2.0:0.7:0.01 v/v ratio to obtain spray solutions containing the highest application rates. […] Compound requirements are based upon a 12 mL application volume at a rate of 187 L/ha. Formulated compounds were applied to the plant material with an overhead Mandel track sprayer equipped with a […] nozzles calibrated to deliver 187 L/ha over an application area of 0.503 square meters at a spray height of 18 inches (43 cm) above average plant canopy height. Control plants were sprayed in the same manner with the blank. The treated plants and control plants were placed in a greenhouse as described above and watered by sub-irrigation to prevent wash-off of the test compounds.

[2] = test system: wheat (Triticum aestivum); assay: Postemergence herbicidal activity in cereal crops; assay type: in vivo; settings: crop, post-emergent, after 20-22 days; for plant injury at 17.5 g/ha: 17.5 g ai/ha
Experimental: as §1

[3] = test system: Lamium purpureum; assay: Postemergence herbicidal activity in cereal crops; assay type: in vivo; settings: post-emergent, after 20-22 days; for pest or weed control at 17.5 g/ha: 17.5 g ai/ha
Experimental: as §1

[4] = test system: Galium aparine; assay: Postemergence herbicidal activity in cereal crops; assay type: in vivo; settings: post-emergent, after 20-22 days; for pest or weed control at 17.5 g/ha: 17.5 g ai/ha
Experimental: as §1

[5] = test system: Papaver rhoeas; assay: Postemergence herbicidal activity in cereal crops; assay type: in vivo; settings: post-emergent, after 20-22 days; for pest or weed control at 17.5 g/ha: 17.5 g ai/ha
Experimental: as §1

[6] = test system: Veronica persica; assay: Postemergence herbicidal activity in cereal crops; assay type: in vivo; settings: post-emergent, after 20-22 days; for pest or weed control at 17.5 g/ha: 17.5 g ai/ha
Experimental: as §1

[7] = test system: velvetleaf (Abutilon theophrasti); assay: Preemergence herbicidal activity; assay type: in vivo; settings: pre-emergent, 140 g ai/ha, after 20-22 days
Source text: (§2) Seeds of the desired test plant species were planted in a soil matrix prepared by mixing a loam soil (43 percent silt, 19 percent clay, and 38 percent sand, with a pH of about 8.1 and an organic matter content of about 1.5 percent) and sand in a 70 to 30 ratio. The soil matrix was contained in plastic pots with a surface area of 113 square centimeters. When required to ensure good germination and healthy plants, a fungicide treatment and/or other chemical or physical treatment was applied. […] Compound requirements are based upon a 12 mL application volume at a rate of 187 L/ha. Formulated compounds were applied to the plant material with an overhead Mandel track sprayer equipped with a […] nozzles calibrated to deliver 187 L/ha over an application area of 0.503 square meters at a spray height of 18 inches (43 cm) above the soil surface. Control plants were sprayed in the same manner with the solvent blank. The treated pots and control pots were placed in a greenhouse maintained with an approximate 15 hour photoperiod and temperatures of about 23-29° C. during the day and 22-28° C. during the night. Nutrients and water were added on a regular basis and supplemental lighting was provided with overhead metal halide 1000-watt lamps as necessary. The water was added by top-irrigation.

[8] = test system: redroot pigweed (Amaranthus retroflexus); assay: Preemergence herbicidal activity; assay type: in vivo; settings: pre-emergent, 140 g ai/ha, after 20-22 days
Source text: as §2

[9] = test system: lambsquarter (Chenopodium album); assay: Preemergence herbicidal activity; assay type: in vivo; settings: pre-emergent, 140 g ai/ha, after 20-22 days
Source text: as §2

[10] = test system: velvetleaf (Abutilon theophrasti); assay: Postemergence herbicidal activity; assay type: in vivo; settings: post-emergent, 140 g ai/ha, after 14 days; for pest or weed control at 140 g/ha: Abutilon theophrasti, post-emergence, 336 h, read-out: % Control ABUTH
In short: (§3)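 Plants grown 7-21 days in greenhouse (about 15 h photoperiod, 23-29° C day, 22-28° C night) to first or second true leaf stage. Compounds in acetone/water/isopropanol/DMSO carrier with crop oil concentrate and Triton X-155 sprayed overhead at 187 L/ha; controls received solvent blank. Plants sub-irrigated afterwards; dose responses analysed by probit analysis.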

[11] = test system: redroot pigweed (Amaranthus retroflexus); assay: Postemergence herbicidal activity; assay type: in vivo; settings: post-emergent, 140 g ai/ha, after 14 days; for pest or weed control at 140 g/ha: Amaranthus retroflexus, post-emergence, 336 h, read-out: % Control AMARE
In short: as §3

[12] = test system: lambsquarter (Chenopodium album); assay: Postemergence herbicidal activity; assay type: in vivo; settings: post-emergent, 140 g ai/ha, after 14 days; for pest or weed control at 140 g/ha: Chenopodium album, post-emergence, 336 h, read-out: % Control CHEAL
In short: as §3

[13] = Hordeum, post-emergence, 480 h, read-out: % Control HORVS
[14] = Triticum aestivum, post-emergence, 480 h, read-out: % Control TRZAS
[15] = Lamium purpureum, post-emergence, 480 h, read-out: % Control LAMPU
[16] = Galium aparine, post-emergence, 480 h, read-out: % Control GALAP
[17] = Papaver rhoeas, post-emergence, 480 h, read-out: % Control PAPRH
[18] = Veronica persica, post-emergence, 480 h, read-out: % Control VERPE
[19] = Hordeum, post-emergence, 480 h, 35 g ai/ha, read-out: % Control HORVS
[20] = Triticum aestivum, post-emergence, 480 h, 35 g ai/ha, read-out: % Control TRZAS
[21] = Lamium purpureum, post-emergence, 480 h, 35 g ai/ha, read-out: % Control LAMPU
[22] = Galium aparine, post-emergence, 480 h, 35 g ai/ha, read-out: % Control GALAP
[23] = Papaver rhoeas, post-emergence, 480 h, 35 g ai/ha, read-out: % Control PAPRH
[24] = Veronica persica, post-emergence, 480 h, 35 g ai/ha, read-out: % Control VERPE

Structure (SMILES)	pest or weed control at 17.5 g/ha [1, 13] [%]	plant injury at 17.5 g/ha [2, 14] [%]	pest or weed control at 17.5 g/ha [3, 15] [%]	pest or weed control at 17.5 g/ha [4, 16] [%]	pest or weed control at 17.5 g/ha [5, 17] [%]	pest or weed control at 17.5 g/ha [6, 18] [%]	pest or weed control at 140 g/ha [10] [%]	pest or weed control at 140 g/ha [11] [%]	pest or weed control at 140 g/ha [12] [%]	melting point [°C]	other results
COC(=O)c1nc(-c2ccc(Cl)c(SC)c2F)cc(N)c1Cl [Compound 1]											% Control HORVS ([1]; 35 g ai/ha): 10%; % Control TRZAS ([2]; 35 g ai/ha): 5%; % Control LAMPU ([3]; 35 g ai/ha): 80%; % Control GALAP ([4]; 35 g ai/ha): 85%; % Control PAPRH ([5]; 35 g ai/ha): 80%; % Control VERPE ([6]; 35 g ai/ha): 50%; % Control ABUTH [7]: 80%; % Control AMARE [8]: 100%; % Control CHEAL [9]: 90%; % Control ABUTH [10]: 85%; % Control AMARE [11]: 100%; % Control CHEAL [12]: 100%
COC(=O)c1nc(-c2ccc(C(F)(F)F)c(OC)c2F)cc(N)c1Cl [Compound 45, 4-Amino-3-chloro-6-(2-fluoro-3-methoxy-4-trifluoromethylphenyl)pyridine-2-carboxylic acid methyl ester]	0	0	100	90	90	80	100	80	95	144 to 146	
COC(=O)c1nc(-c2c(F)cc(C)c(OC)c2F)cc(N)c1Cl [Compound 51, 4-Amino-3-chloro-6-(2,6-difluoro-3-methoxy-4-methylphenyl)pyridine-2-carboxylic acid, methyl ester]							100	100	100		pest or weed control at 35 g/ha [1, 19]: 0%; plant injury at 35 g/ha [2, 20]: 0%; pest or weed control at 35 g/ha [3, 21]: 70%; pest or weed control at 35 g/ha [4, 22]: 95%; pest or weed control at 35 g/ha [5, 23]: 100%; pest or weed control at 35 g/ha [6, 24]: 30%
COC(=O)c1nc(-c2c(F)cc(F)c(OC)c2F)cc(N)c1Cl [Compound 56, 4-Amino-3-chloro-6-(2,4,6-trifluoro-3-methyoxyphenyl)pyridine-2-carboxylic acid, methyl ester]											% Control HORVS ([1]; 70 g ai/ha): 10%; % Control TRZAS ([2]; 70 g ai/ha): 0%; % Control LAMPU ([3]; 70 g ai/ha): 99%; % Control GALAP ([4]; 70 g ai/ha): 100%; % Control PAPRH ([5]; 70 g ai/ha): 100%; % Control VERPE ([6]; 70 g ai/ha): 95%; % Control ABUTH [10]: 100%; % Control AMARE [11]: 100%; % Control CHEAL [12]: 100%
COC(=O)c1nc(-c2ccc(Cl)c(C(F)C(F)(F)F)c2F)cc(N)c1Cl (stereo not drawn) [Compound 65, 4-Amino-3-chloro-6-[4-chloro-2-fluoro-3-(1,2,2,2-tetrafluoroethyl)phenyl)-pyridine-2-carboxylic acid, methyl ester]							95	100	90		pest or weed control at 35 g/ha [1, 19]: 5%; plant injury at 35 g/ha [2, 20]: 15%; pest or weed control at 35 g/ha [3, 21]: 95%; pest or weed control at 35 g/ha [4, 22]: 85%; pest or weed control at 35 g/ha [5, 23]: 90%; pest or weed control at 35 g/ha [6, 24]: 40%
COC(=O)c1nc(-c2ccc(C(F)F)c(OC)c2F)cc(N)c1Cl [Compound 71, 4-Amino-3-chloro-6-(4-difluoromethyl-2-fluoro-3-methoxyphenyl)pyridine-2-carboxylic acid, methyl ester]	0	0	95	95	95	50	100	80	85	145 to 147	
COC(=O)c1nc(-c2cc(OC)c(F)cc2F)cc(N)c1Cl [Compound 73, 4-Amino-3-chloro-6-(2,4-difluoro-5-methoxyphenyl)pyridine-2-carboxylic acid, methyl ester]							90	100	100	128 to 130	pest or weed control at 70 g/ha ([1]; Hordeum, post-emergence, 480 h, 70 g ai/ha, read-out: % Control HORVS): 0%; plant injury at 70 g/ha ([2]; Triticum aestivum, post-emergence, 480 h, 70 g ai/ha, read-out: % Control TRZAS): 0%; pest or weed control at 70 g/ha ([3]; Lamium purpureum, post-emergence, 480 h, 70 g ai/ha, read-out: % Control LAMPU): 99%; pest or weed control at 70 g/ha ([4]; Galium aparine, post-emergence, 480 h, 70 g ai/ha, read-out: % Control GALAP): 95%; pest or weed control at 70 g/ha ([5]; Papaver rhoeas, post-emergence, 480 h, 70 g ai/ha, read-out: % Control PAPRH): 95%; pest or weed control at 70 g/ha ([6]; Veronica persica, post-emergence, 480 h, 70 g ai/ha, read-out: % Control VERPE): 60%
CCCCOCCOC(=O)c1nc(-c2ccc(Cl)c(OC)c2F)cc(N)c1Cl [Compound 87, 4-Amino-3-chloro-6-(4-chloro-2-fluoro-3-methoxyphenyl)pyridine-2-carboxylic acid, 2-butoxy-ethyl ester]	0	0	100	100	100	50	100	100	100		
